From patent US20120270237A9, “METHODS FOR THE IDENTIFICATION OF KINASE INTERACTING MOLECULES AND FOR THE PURIFICATION OF KINASE PROTEINS” (Cellzone AG, priority 2009, published 2012)

Legend:
Assay in all cases: Kinobeads competition binding, L-363 cell lysate
Parameters in all cases: endogenous in cells
Conditions in all cases: 10 μM free compound, L-363 lysate
AurA = target: T1, AurA (Homo sapiens, UniProt O14965)
T1 sequence (O14965 1-403): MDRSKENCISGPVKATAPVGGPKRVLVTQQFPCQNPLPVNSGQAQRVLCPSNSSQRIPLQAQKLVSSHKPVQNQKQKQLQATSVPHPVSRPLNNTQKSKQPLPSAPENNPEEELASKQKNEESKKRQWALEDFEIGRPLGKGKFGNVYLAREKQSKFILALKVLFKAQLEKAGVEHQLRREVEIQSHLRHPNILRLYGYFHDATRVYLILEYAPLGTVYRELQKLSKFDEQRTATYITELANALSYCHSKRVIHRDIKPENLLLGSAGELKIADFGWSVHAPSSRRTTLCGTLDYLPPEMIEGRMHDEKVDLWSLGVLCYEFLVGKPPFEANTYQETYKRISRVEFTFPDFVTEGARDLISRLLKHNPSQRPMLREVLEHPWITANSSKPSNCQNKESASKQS
Method: (§1) To one aliquot of cell lysate 10 μM of the free compound (FIG. 3, CZC31326) was added and allowed to bind to proteins in the lysate. Then the affinity matrix with the immobilized compound was added to capture proteins that were not interacting with the previously added free compound. Beads were separated from the lysate and bead bound proteins were eluted in SDS sample buffer and subsequently separated by SDS-Polyacrylamide gel electrophoresis (FIG. 8). Suitable gel bands were cut out and subjected to in-gel proteolytic digestion with trypsin. The second lysate aliquot was processed identically, however no free compound was added (DMSO solvent control). Peptides originating from samples 1 and 2 were labeled with iTRAQ reagents (iTRAQ 114 and iTRAQ 117) and the combined samples were analyzed with a nano-flow liquid chromatography system coupled online to a tandem mass spectrometer (LC-MS/MS) experiment followed by iTRAQ reporter ion quantification in the MS/MS spectra as described in Example 2.
(§2) For this experiment the human plasma cell leukaemia line L-363 was used (German Collection of Microorganisms and Cell Cultures, DSMZ number ACC49, Braunschweig, Germany). Cells were treated for three hours with 20 μM of the proteasome inhibitor MG132 (Z-Leu-Leu-Leu-al, Sigma C2211) prior to cell harvesting.

MSK2 = MSK2 (Homo sapiens, UniProt O75676)
MSK2, sequence (O75676 whole entry): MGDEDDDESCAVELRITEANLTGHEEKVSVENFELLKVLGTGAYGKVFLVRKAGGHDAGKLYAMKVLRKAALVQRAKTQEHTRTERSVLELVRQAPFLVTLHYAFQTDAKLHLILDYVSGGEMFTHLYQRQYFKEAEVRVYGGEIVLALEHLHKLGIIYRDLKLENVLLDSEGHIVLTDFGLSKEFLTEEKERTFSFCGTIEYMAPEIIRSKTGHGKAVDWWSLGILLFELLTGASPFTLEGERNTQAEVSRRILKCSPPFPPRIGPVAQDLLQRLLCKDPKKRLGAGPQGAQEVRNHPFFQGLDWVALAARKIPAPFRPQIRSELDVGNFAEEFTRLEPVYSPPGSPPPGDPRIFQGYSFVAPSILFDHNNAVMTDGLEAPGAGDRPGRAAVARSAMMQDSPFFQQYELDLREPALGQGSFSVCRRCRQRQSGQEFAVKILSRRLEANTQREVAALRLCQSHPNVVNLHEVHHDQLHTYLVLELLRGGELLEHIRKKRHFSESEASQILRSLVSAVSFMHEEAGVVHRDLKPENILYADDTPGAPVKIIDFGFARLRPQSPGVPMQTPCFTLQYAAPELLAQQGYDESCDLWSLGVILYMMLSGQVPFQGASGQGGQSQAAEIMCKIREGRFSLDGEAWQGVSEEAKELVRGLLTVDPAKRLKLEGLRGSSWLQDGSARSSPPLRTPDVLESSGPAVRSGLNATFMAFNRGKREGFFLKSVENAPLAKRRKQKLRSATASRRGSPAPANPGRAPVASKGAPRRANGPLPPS
Method: as §1, §2

PHKg2 = target: T2, PHKg2 (Homo sapiens, UniProt P15735)
T2 sequence (P15735 1-406): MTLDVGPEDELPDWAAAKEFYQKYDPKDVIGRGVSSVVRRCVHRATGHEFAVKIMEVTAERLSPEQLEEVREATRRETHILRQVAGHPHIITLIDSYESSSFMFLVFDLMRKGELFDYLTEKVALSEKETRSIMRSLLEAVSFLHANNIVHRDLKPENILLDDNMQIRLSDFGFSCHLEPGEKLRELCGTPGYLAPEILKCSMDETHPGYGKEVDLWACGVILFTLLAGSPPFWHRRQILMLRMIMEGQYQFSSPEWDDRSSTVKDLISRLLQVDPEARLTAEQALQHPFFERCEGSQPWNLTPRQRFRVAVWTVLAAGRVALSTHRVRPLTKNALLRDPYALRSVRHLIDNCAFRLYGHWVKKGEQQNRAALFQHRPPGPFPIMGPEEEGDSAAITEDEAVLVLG
Method: as §1, §2

QIK = QIK (Homo sapiens, UniProt Q9H0K1)
QIK, sequence (Q9H0K1 whole entry): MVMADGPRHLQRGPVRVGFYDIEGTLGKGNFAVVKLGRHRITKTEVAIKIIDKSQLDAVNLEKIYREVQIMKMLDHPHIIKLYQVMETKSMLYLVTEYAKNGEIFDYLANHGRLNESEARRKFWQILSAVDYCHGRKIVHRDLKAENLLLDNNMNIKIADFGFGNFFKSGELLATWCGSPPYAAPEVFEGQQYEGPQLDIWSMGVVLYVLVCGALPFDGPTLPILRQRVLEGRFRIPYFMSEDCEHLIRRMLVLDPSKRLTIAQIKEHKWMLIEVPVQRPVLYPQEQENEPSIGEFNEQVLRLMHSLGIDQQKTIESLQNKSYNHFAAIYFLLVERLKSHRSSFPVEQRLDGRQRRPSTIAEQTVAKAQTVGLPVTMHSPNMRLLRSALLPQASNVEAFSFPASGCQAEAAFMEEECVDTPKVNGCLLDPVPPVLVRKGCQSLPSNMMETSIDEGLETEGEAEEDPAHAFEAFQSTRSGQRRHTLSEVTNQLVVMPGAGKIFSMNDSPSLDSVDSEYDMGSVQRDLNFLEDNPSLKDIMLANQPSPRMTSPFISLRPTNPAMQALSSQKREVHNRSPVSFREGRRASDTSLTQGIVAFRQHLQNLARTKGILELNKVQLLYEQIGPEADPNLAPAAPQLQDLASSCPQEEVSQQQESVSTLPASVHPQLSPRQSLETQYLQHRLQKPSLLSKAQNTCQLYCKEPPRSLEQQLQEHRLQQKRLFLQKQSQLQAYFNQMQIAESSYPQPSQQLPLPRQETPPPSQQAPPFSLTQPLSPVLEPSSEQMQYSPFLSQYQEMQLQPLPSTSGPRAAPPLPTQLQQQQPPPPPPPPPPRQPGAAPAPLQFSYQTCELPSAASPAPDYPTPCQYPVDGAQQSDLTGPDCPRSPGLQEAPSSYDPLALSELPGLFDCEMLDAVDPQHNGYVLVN
Method: as §1, §2

TAO3 = target: T3, TAO3 (Homo sapiens, UniProt Q9H2K8)
T3 sequence (Q9H2K8 1-898): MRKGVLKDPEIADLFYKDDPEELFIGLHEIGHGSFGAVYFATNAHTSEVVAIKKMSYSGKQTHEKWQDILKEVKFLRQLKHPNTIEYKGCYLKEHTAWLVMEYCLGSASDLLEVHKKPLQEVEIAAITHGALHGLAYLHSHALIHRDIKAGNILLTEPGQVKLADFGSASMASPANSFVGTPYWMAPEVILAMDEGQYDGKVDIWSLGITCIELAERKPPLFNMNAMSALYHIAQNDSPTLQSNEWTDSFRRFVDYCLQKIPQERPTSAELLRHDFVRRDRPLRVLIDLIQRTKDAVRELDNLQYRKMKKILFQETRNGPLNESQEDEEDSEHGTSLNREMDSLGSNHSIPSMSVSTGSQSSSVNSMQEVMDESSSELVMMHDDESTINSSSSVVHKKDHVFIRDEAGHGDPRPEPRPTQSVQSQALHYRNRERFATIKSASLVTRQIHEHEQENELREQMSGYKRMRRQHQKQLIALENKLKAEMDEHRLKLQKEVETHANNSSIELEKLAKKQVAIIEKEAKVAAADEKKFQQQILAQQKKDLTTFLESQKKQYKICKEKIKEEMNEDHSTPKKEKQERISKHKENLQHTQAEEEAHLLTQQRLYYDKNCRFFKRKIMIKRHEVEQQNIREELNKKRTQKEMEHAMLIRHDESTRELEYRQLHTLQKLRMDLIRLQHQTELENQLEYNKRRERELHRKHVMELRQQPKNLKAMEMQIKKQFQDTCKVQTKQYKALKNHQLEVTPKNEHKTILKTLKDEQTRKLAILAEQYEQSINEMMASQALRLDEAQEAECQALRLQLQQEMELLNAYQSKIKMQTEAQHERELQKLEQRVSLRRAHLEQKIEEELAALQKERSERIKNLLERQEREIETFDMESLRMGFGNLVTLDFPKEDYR
Method: as §1, §2

CS(=O)(=O)Nc1ccccc1Nc1nc(Nc2cccc(OCCN)c2)ncc1Cl [CZC31326, N-(2-(2-(3-(2-aminoethoxy)phenylamino)-5-chloropyrimidin-4-ylamino)phenyl)methanesulfonamide]
inhibition at 10 µM (AurA): 97% | inhibition at 10 µM (MSK2): 94.2% | inhibition at 10 µM (PHKg2): 94.1% | inhibition at 10 µM (QIK): 96.5% | inhibition at 10 µM (TAO3): 94.7%
